Tests used:
plasma levels of FFA = assay: Effect of oral administration on plasma levels of FFA in the empty rat; conditions: for Percent variations of plasma FFA with respect to the controls / Percent variations of plasma FFA with respect to the control: empty rat; for Percent variations of plasma FFA with respect to the control: Table 5, 100 mg/kg oral referred to nicotinic acid
[1] = system: plasma levels of cholesterol; assay: Effect of oral administration on plasma levels of cholesterol in the empty rat; format: in vivo, rat (COBS CD (SD) BR male); conditions: for Percent variations of plasma cholesterol with respect to the controls: 100 mg/kg oral referred to nicotinic acid; for Percent variations of plasma cholesterol with respect to the controls / Percent variations of plasma cholesterol with respect to the control: empty rat; for Percent variations of plasma cholesterol with respect to the control: Table 5, 100 mg/kg oral referred to nicotinic acid
[2] = system: plasma levels of triglycerides; assay: Effect of oral administration on plasma levels of triglycerides in the empty rat; format: in vivo, rat (COBS CD (SD) BR male); conditions: for Percent variations of plasma triglycerides with respect to the controls / Percent variations of plasma triglycerides with respect to the control: empty rat; for Time within which the effect on triglycerides disappears: rat; for Percent variations of plasma triglycerides with respect to the control: Table 5, 100 mg/kg oral referred to nicotinic acid
[3] = system: plasma levels of free glycerol; assay: Effect of oral administration on plasma levels of free glycerol in the empty rat; format: in vivo, rat (COBS CD (SD) BR male); conditions: for Percent variations of plasma free glycerol with respect to the controls: empty rat
Solubility = format: physicochemical
[4] = 30 mg/kg oral referred to nicotinic acid, 1 h
[5] = 30 mg/kg oral referred to nicotinic acid, 2 h
[6] = 30 mg/kg oral referred to nicotinic acid, 4 h
[7] = 30 mg/kg oral referred to nicotinic acid, 6 h
[8] = 100 mg/kg oral referred to nicotinic acid, 2 h
[9] = 100 mg/kg oral referred to nicotinic acid, 4 h
[10] = 100 mg/kg oral referred to nicotinic acid, 6 h
[11] = 100 mg/kg oral referred to nicotinic acid, 8 h
[12] = 100 mg/kg oral referred to nicotinic acid, 10 h
[13] = 100 mg/kg oral referred to nicotinic acid, 16 h
[14] = 100 mg/kg oral referred to nicotinic acid, 24 h

O=C(OC[C@H](OC(=O)c1cccnc1)[C@@H](OC(=O)c1cccnc1)[C@H](OC(=O)c1cccnc1)[C@@H](COC(=O)c1cccnc1)OC(=O)c1cccnc1)c1cccnc1 [SORBINICATE, D-glucitol hexanicotinate]
Percent variations of plasma FFA with respect to the controls (plasma levels of FFA; [4]): -56%
Percent variations of plasma FFA with respect to the controls (plasma levels of FFA; [5]): -14%
Percent variations of plasma FFA with respect to the controls (plasma levels of FFA; [6]): +13%
Percent variations of plasma FFA with respect to the controls (plasma levels of FFA; [7]): -9%
Percent variations of plasma FFA with respect to the controls (plasma levels of FFA; [8]): -72%
Percent variations of plasma FFA with respect to the controls (plasma levels of FFA; [9]): -1%
Percent variations of plasma FFA with respect to the controls (plasma levels of FFA; [10]): +6%
Percent variations of plasma FFA with respect to the controls (plasma levels of FFA; [11]): +4%
Percent variations of plasma FFA with respect to the controls (plasma levels of FFA; [12]): -5%
Percent variations of plasma FFA with respect to the controls (plasma levels of FFA; [13]): +6%
Percent variations of plasma FFA with respect to the controls (plasma levels of FFA; [14]): +2%
Time within which the effect on FFA disappears (plasma levels of FFA; 100 mg/kg oral, rat): ≤ 4 h
Percent variations of plasma cholesterol with respect to the controls ([1]; 4 h): -14%
Percent variations of plasma cholesterol with respect to the controls ([1]; 6 h): -15%
Percent variations of plasma cholesterol with respect to the controls ([1]; 8 h): -7%
Percent variations of plasma cholesterol with respect to the controls ([1]; 10 h): -15%
Percent variations of plasma cholesterol with respect to the controls ([1]; 16 h): -13%
Percent variations of plasma cholesterol with respect to the controls ([1]; 24 h): -9%
Lowering of cholesterolemy ([1]; 100 mg/kg oral, rat): at the tenth hour only
Percent variations of plasma triglycerides with respect to the controls [2, 4]: -42%
Percent variations of plasma triglycerides with respect to the controls [2, 5]: -16%
Percent variations of plasma triglycerides with respect to the controls [2, 6]: +6%
Percent variations of plasma triglycerides with respect to the controls [2, 7]: -3%
Time within which the effect on triglycerides disappears ([2]; 30 mg/kg oral): ≤ 2 h
Percent variations of plasma triglycerides with respect to the controls [2, 8]: -61%
Percent variations of plasma triglycerides with respect to the controls [2, 9]: -46%
Percent variations of plasma triglycerides with respect to the controls [2, 10]: -55%
Percent variations of plasma triglycerides with respect to the controls [2, 11]: -5%
Percent variations of plasma triglycerides with respect to the controls [2, 12]: +9%
Percent variations of plasma triglycerides with respect to the controls [2, 13]: -3%
Percent variations of plasma triglycerides with respect to the controls [2, 14]: -25%
Time within which the effect on triglycerides disappears ([2]; 100 mg/kg oral): within the eighth hour
Percent variations of plasma free glycerol with respect to the controls [3, 4]: -59%
Percent variations of plasma free glycerol with respect to the controls [3, 5]: -27%
Percent variations of plasma free glycerol with respect to the controls [3, 6]: +2%
Percent variations of plasma free glycerol with respect to the controls [3, 7]: -7%
Activity on free glycerol ([3]; 30 mg/kg oral, rat): active only after 1 hour
Percent variations of plasma free glycerol with respect to the controls [3, 8]: -70%
Percent variations of plasma free glycerol with respect to the controls [3, 9]: -3%
Percent variations of plasma free glycerol with respect to the controls [3, 10]: +3%
Percent variations of plasma free glycerol with respect to the controls [3, 11]: +20%
Percent variations of plasma free glycerol with respect to the controls [3, 12]: +8%
Percent variations of plasma free glycerol with respect to the controls [3, 13]: -1%
Percent variations of plasma free glycerol with respect to the controls [3, 14]: -1%
Time within which the effect on free glycerol disappears ([3]; 100 mg/kg oral, rat): within the fourth hour

N[C@H]1C(OC(=O)c2cccnc2)O[C@H](COC(=O)c2cccnc2)[C@@H](OC(=O)c2cccnc2)[C@@H]1OC(=O)c1cccnc1 (stereo partly drawn) [glucosamine tetranicotinate, Glucosamine tetranicotinate]
Percent variations of plasma FFA with respect to the control (plasma levels of FFA; 2 h): -70%
Percent variations of plasma FFA with respect to the control (plasma levels of FFA; 4 h): -48%
Percent variations of plasma FFA with respect to the control (plasma levels of FFA; 8 h): -65%
Percent variations of plasma cholesterol with respect to the control ([1]; 4 h): -16%
Percent variations of plasma cholesterol with respect to the control ([1]; 8 h): -26%
Percent variations of plasma cholesterol with respect to the control ([1]; 24 h): -59%
Percent variations of plasma triglycerides with respect to the control ([2]; 2 h): -54%
Percent variations of plasma triglycerides with respect to the control ([2]; 4 h): -53%
Percent variations of plasma triglycerides with respect to the control ([2]; 8 h): -82%
Solubility (Solubility): soluble in the common organic solvents and in acid solutions

O=C(N[C@H]1[C@@H](OC(=O)c2cccnc2)O[C@H](COC(=O)c2cccnc2)[C@@H](OC(=O)c2cccnc2)[C@@H]1OC(=O)c1cccnc1)c1cccnc1 [α, α-N-nicotinoyl-glucosamine tetranicotinate]
Percent variations of plasma FFA with respect to the control (plasma levels of FFA; 2 h): -64%
Percent variations of plasma FFA with respect to the control (plasma levels of FFA; 4 h): -13%
Percent variations of plasma FFA with respect to the control (plasma levels of FFA; 8 h): -7%
Percent variations of plasma cholesterol with respect to the control ([1]; 4 h): -4%
Percent variations of plasma cholesterol with respect to the control ([1]; 8 h): -12%
Percent variations of plasma cholesterol with respect to the control ([1]; 24 h): -44%
Percent variations of plasma triglycerides with respect to the control ([2]; 2 h): -56%
Percent variations of plasma triglycerides with respect to the control ([2]; 4 h): -68%
Percent variations of plasma triglycerides with respect to the control ([2]; 8 h): -47%
Solubility (Solubility): soluble in the common non-polar organic solvents

O=C(N[C@H]1[C@H](OC(=O)c2cccnc2)O[C@H](COC(=O)c2cccnc2)[C@@H](OC(=O)c2cccnc2)[C@@H]1OC(=O)c1cccnc1)c1cccnc1 [β, β-N-nicotinoyl-glucosamine tetranicotinate]
Percent variations of plasma FFA with respect to the control (plasma levels of FFA; 2 h): -67%
Percent variations of plasma FFA with respect to the control (plasma levels of FFA; 4 h): -30%
Percent variations of plasma FFA with respect to the control (plasma levels of FFA; 8 h): -44%
Percent variations of plasma cholesterol with respect to the control ([1]; 4 h): -2%
Percent variations of plasma cholesterol with respect to the control ([1]; 8 h): -17%
Percent variations of plasma cholesterol with respect to the control ([1]; 24 h): -43%
Percent variations of plasma triglycerides with respect to the control ([2]; 2 h): -53%
Percent variations of plasma triglycerides with respect to the control ([2]; 4 h): -77%
Percent variations of plasma triglycerides with respect to the control ([2]; 8 h): -69%
Solubility (Solubility): slightly soluble in acetone, ethanol and chloroform, but soluble in dilute acids

From patent US4358441A, “Nicotinic derivatives of glucosamine and related pharmaceutical compositions” (Laboratorio Guidotti & C. S.p.A., priority 1980, dated 1982)
